# Experimental data reported in paper PMC4444084, “An Antioxidant Extract of the Insectivorous Plant Drosera burmannii Vahl. Alleviates Iron-Induced Oxidative Stress and Hepatic Injury in Mice” (PLoS ONE, 2015).
# Values joined by “and” are separate entries in the source; they are usually repeats but may differ in a detail not shown here. Equal entries are not always repeated. Marks after values point to notes of the source that are not given here.
# Tests used:
# [1] = Singlet oxygen scavenging; assay type: biochemical
# Protocol: (§1) The ROS scavenging ability of DBME was determined using multiple stable ROS radical scavenging assays, such as hydroxyl, superoxide, hypochlorous radical, singlet oxygen and hydrogen peroxide assays by standard procedures.
# WI-38 cells = test: WST-1 cytotoxicity assay; assay type: cell-based, human; conditions: 48 hours; for Cytotoxicity assay IC50: WST-1; for cytotoxicity against normal cells (in words): 0-120 μg/ml
# Protocol: (§2) The human lung fibroblast (WI-38) cell line was purchased from the National Centre for Cell Science (NCCS), India. Cells were grown in DMEM supplemented with 10% (v/v) fetal bovine serum (FBS), 100 U/ml penicillin G, 50 μg/ml gentamycin sulfate, 100 μg/ml streptomycin and 2.5 μg/ml amphotericin B. The cell line was maintained in a CO2 incubator at 37°C in a humidified atmosphere containing 5% CO2. Cell proliferation and cell viability were quantified using the WST-1 Cell Proliferation Reagent, Roche diagnostics, according to previously described methods. […] Briefly, WI-38 cells (1 × 10^4 cells/well) were treated with DBME, purpurin, catechin, tannic acid, reserpine, methyl gallate or rutin at doses ranging from 0–120 μg/ml for 48 hours in 96-well culture plates. After treatment, 10 μl of the WST-1 cell proliferation reagent was added to each well followed by 2 hours of incubation at 37°C. Cell proliferation and viability were quantified by measuring the absorbance at 460 nm using a microplate ELISA reader […] EX (Thermo Electron Corporation, USA).
# [2] = Iron chelation assay (Fe2+-ferrozine complex formation); assay type: biochemical; conditions: for in vitro iron chelation ability (in words): Fe2+-ferrozine complex; for Iron chelating activity IC50: Fe2+-ferrozine, HEPES pH 7.2
# Protocol: The Fe^2+ chelating activity of DBME, catechin, methyl gallate, purpurin, reserpine, rutin and tannic acid was evaluated according to standard methods. HEPES buffer (20 mM, pH 7.2), DBME (0–120 μg/ml) and a positive control EDTA (0–20 μg/ml) were separately added to a 12.5 μM ferrous sulfate solution, and 75 μM ferrozine was added to start the reaction. The mixture was shaken vigorously and left standing for 20 min at room temperature. Next, the absorbance was measured at 562 nm. All tests were performed six times.
# [3] = Hypochlorous acid scavenging; assay type: biochemical
# Protocol: as §1
# [4] = DPPH radical scavenging assay; assay type: biochemical
# Protocol: The total antioxidant capacity of DBME was evaluated by an ABTS•^+ radical cation decolorization assay in comparison to a trolox standard and 2,2-diphenyl-1-picrylhydrazyl (DPPH) radical scavenging assay. The reducing power of DBME was determined using a previously described method.
# iron overloaded mice [5] = test: Liver antioxidants (SOD, CAT, GST, GSH) in iron overloaded mice; assay type: in vivo, Swiss albino mice; conditions: D: desirox 20 mg/kg b.w. oral 21 days
# Protocol: (§3) Mice were divided into six groups of six mice each. One group was labeled as blank (B) and received normal saline. The other five groups received five intraperitoneal injections of iron-dextran at a dose of 100 mg/kg b.w. (one dose every two days). One iron-dextran group (C) was administered normal saline, and the other four groups were orally treated with either 50 mg/kg b.w. (S50), 100 mg/kg b.w. (S100), 200 mg/kg b.w. (S200) DBME or 20 mg/kg b.w. desirox (D) for 21 days beginning on the day following the first iron-dextran injection.
# (§4) After treatment, mice were fasted overnight on the 21st day and anesthetized with ethyl ether. Blood was collected by cardiac puncture. Serum from the blood samples was separated using a cooling centrifuge and stored at -80°C until analysis. The liver was washed with ice-cold saline and divided into three parts. One major portion of the liver was cut, weighed and homogenized in 10 volumes of 0.1 M phosphate buffer (pH 7.4) containing 5 mM EDTA and 0.15 M NaCl. The sample was centrifuged at 8,000 g for 30 min at 4°C. The protein concentration in the supernatant was estimated according to Lowry's method using BSA as a standard. The remaining samples were stored at -80°C until further analysis. Another portion of the liver was weighed and digested using an equivolume mixture of sulfuric acid and nitric acid for iron content analysis. A final liver sample was used for histopathological studies.
# Superoxide dismutase (SOD), catalase (CAT) activity, glutathione-S-transferase (GST) and reduced glutathione (GSH) levels were assayed according to previously reported methods.
# iron overloaded mice [6] = test: Serum markers (ALAT, ASAT, ALP, bilirubin) in iron overloaded mice; assay type: in vivo, Swiss albino mice; conditions: D: desirox 20 mg/kg b.w. oral 21 days
# Protocol: as §3, §4
# Alanine amino transferase (ALAT), aspartate amino transferase (ASAT), and bilirubin levels were measured in serum samples using commercial kits from Merck, Mumbai, India. Serum alkaline phosphatase (ALP) was estimated using a kit supplied by Sentinel diagnostics, Italy. The serum ferritin level was measured using an enzyme-linked immunosorbent assay (Monobind Inc., USA) according to the manufacturer’s instructions.
# Peroxynitrite scavenging = assay type: biochemical
# Protocol: The RNS scavenging activity of DBME was determined using nitric oxide and peroxynitrite radical scavenging assays.
# [7] = Hydroxyl radical scavenging; assay type: biochemical
# Protocol: as §1
# WST-1 cytotoxicity assay = assay type: cell-based, human; conditions: human, WI-38 human lung fibroblast cells, WI-38 cells, WST-1
# Protocol: as §2
# [8] = Superoxide anion scavenging; assay type: biochemical
# Protocol: as §1
# [9] = Hydrogen peroxide scavenging; assay type: biochemical
# Protocol: as §1
compound,measurement,setting,value
"O=C(O)CCCC[C@@H]1CCSS1 (racemic) [Lipoic acid, lipoic acid]",Singlet oxygen scavenging IC50,[1],46.16 ± 1.16 µg/mL
"Oc1cc(O)c2c(c1)OC(c1ccc(O)c(O)c1)C(O)C2 (single isomer, unassigned; (+)) [Catechin, (+) catechin]",Cytotoxicity assay IC50,WI-38 cells,753.56 ± 31.99 µg/mL
same,in vitro iron chelation ability (in words),[2],failed to chelate iron
same,Iron chelating activity IC50,[2],1940.22 ± 179.61 µg/mL
"O=C1O[C@H]([C@@H](O)CO)C(O)=C1O [Ascorbic acid, ascorbic acid]",Hypochlorous acid (HOCl) scavenging IC50,[3],235.96 ± 5.75 µg/mL
same,DPPH IC50,[4],5.29 ± 0.28 µg/mL
"O=C(O)c1ccc(-n2nc(-c3ccccc3O)nc2-c2ccccc2O)cc1 [D, desirox]",CAT % Change,iron overloaded mice [5]; change vs B group,26.09%
same,GSH % Change,iron overloaded mice [5]; change vs B group,5.13%
same,GST % Change,iron overloaded mice [5]; change vs B group,35.42%
same,SOD % Change,iron overloaded mice [5]; change vs B group,15.31%
same,CAT,iron overloaded mice [5]; iron overloaded mice,16.14 ± 3.87 ^c ^f Unit/mg protein and 16.14 ± 3.87^cf Unit/mg protein
same,GSH,iron overloaded mice [5]; iron overloaded mice,0.48 ± 0.02 ^a ^f μg/mg protein and 0.48 ± 0.02^af μg/mg protein
same,GST,iron overloaded mice [5]; iron overloaded mice,3.72 ± 0.36 ^c ^f Unit/mg protein and 3.72 ± 0.36^cf Unit/mg protein
same,SOD,iron overloaded mice [5]; iron overloaded mice,0.47 ± 0.05 ^a ^f Unit/mg protein and 0.47 ± 0.05^af Unit/mg protein
same,ALAT % Change,iron overloaded mice [6]; change vs B group,52.79%
same,ALP % Change,iron overloaded mice [6]; change vs B group,84.44%
same,ASAT % Change,iron overloaded mice [6]; change vs B group,17.36%
same,Bilirubin % Change,iron overloaded mice [6]; change vs B group,10.97%
same,ALAT,iron overloaded mice [6]; iron overloaded mice,23.29 ± 1.09 ^c ^f Unit/l and 23.29 ± 1.09^cf Unit/l
same,ALP,iron overloaded mice [6]; iron overloaded mice,61.01 ± 2.44 ^c ^f Unit/l and 61.01 ± 2.44^cf Unit/l
same,ASAT,iron overloaded mice [6]; iron overloaded mice,79.35 ± 4.36 ^a ^f Unit/l and 79.35 ± 4.36^af Unit/l
same,Bilirubin,iron overloaded mice [6]; iron overloaded mice,1.68 ± 0.15 ^f mg/dl
"O=C(O)CN(CCN(CC(=O)O)CC(=O)O)CC(=O)O [EDTA, Ethylenediamine tetraacetic acid]",Iron chelating activity IC50,[2],1.27 ± 0.05 µg/mL
"O=C(O)c1cc(O)c(O)c(O)c1 [Gallic acid, gallic acid]",Peroxynitrite (ONOO-) scavenging IC50,Peroxynitrite scavenging,876 ± 570 µg/mL
"OC[C@@H](O)[C@@H](O)[C@H](O)[C@H](O)CO [Mannitol, mannitol]",Hydroxyl radical (OH) scavenging IC50,[7],571.45 ± 20.12 µg/mL
"COC(=O)c1cc(O)c(O)c(O)c1 [Methyl gallate, methyl gallate]",IC50 at 48 h,WST-1 cytotoxicity assay,344 ± 31.3 µg/mL
same,Iron chelating activity IC50,[2],70.86 ± 1.20 µg/mL
"O=C1c2ccccc2C(=O)c2c(O)c(O)cc(O)c21 [Purpurin, purpurin]",IC50 at 48 h,WST-1 cytotoxicity assay,1470 ± 291 µg/mL
same,cytotoxicity against normal cells (in words),WI-38 cells,negligible cytotoxicity
same,Iron chelating activity IC50,[2],252.37 ± 4.08 µg/mL
"O=c1c(O)c(-c2ccc(O)c(O)c2)oc2cc(O)cc(O)c12 [Quercetin, quercetin]",Superoxide anion scavenging IC50,[8],42.06 ± 1.35 µg/mL
"COC(=O)[C@H]1[C@H]2C[C@@H]3c4[nH]c5cc(OC)ccc5c4CCN3C[C@H]2C[C@@H](OC(=O)c2cc(OC)c(OC)c(OC)c2)[C@@H]1OC [Reserpine, reserpine]",IC50 at 48 h,WST-1 cytotoxicity assay,44.8 ± 2.06 µg/mL
same,cytotoxicity against normal cells (in words),WI-38 cells,most toxic compound
same,in vitro iron chelation ability (in words),[2],failed to chelate iron
same,Iron chelating activity IC50,[2],3095.13 ± 438.00 µg/mL
"C[C@@H]1O[C@@H](OC[C@H]2O[C@@H](Oc3c(-c4ccc(O)c(O)c4)oc4cc(O)cc(O)c4c3=O)[C@H](O)[C@@H](O)[C@@H]2O)[C@H](O)[C@H](O)[C@H]1O [Rutin, rutin]",IC50 at 48 h,WST-1 cytotoxicity assay,1230 ± 195 µg/mL
same,cytotoxicity against normal cells (in words),WI-38 cells,negligible cytotoxicity
"CC(=O)C(=O)[O-].[Na+] [Sodium pyruvate, sodium pyruvate]",Hydrogen peroxide (H2O2) scavenging IC50,[9],3240 ± 300 µg/mL
tannic acid,Cytotoxicity assay IC50,WI-38 cells,581.03 ± 64.97 µg/mL
same,in vitro iron chelation ability (in words),[2],most effective chelator
same,Iron chelating activity IC50,[2],50.22 ± 0.85 µg/mL
